Laboratory results taken from patent US20100126680A1, “Method For Controlling Enzymatic Decomposition Of Peroxide and Products Thereof” (BUCKMAN LABORATORIES INTERNATIONAL, INC., priority 2008, published 2010).

Assays:
Format in all cases: biochemical
[1] = system: commercial catalase TERMINOX® Ultra 50L; test: Filter paper float test of catalase de-activation using distilled water; conditions: for Float time: 20 μL catalase/1000 mL distilled water, no-inhibitor float time 75 sec
Procedure: (§1) A filter paper float test was carried out to study catalase deactivation performance of aldehyde-functional polymers and a conventional catalase inhibitor on bleached paper. In a typical float test, a one-inch square piece of filter paper was saturated with 50% H2O2 solution. With excess H2O2 solution being removed, the treated filter paper was submerged in 200 mL aqueous catalase solution or 200 mL de-inking white water. The catalase solution was prepared by diluting a commercial catalase solution with either distilled water or papermaking white water. Various amounts of the catalase inhibitors being studied were mixed with the catalase solution or de-inking white water for five minutes before the treated filter paper was submerged in the catalase solution or de-inking white paper. Controls also were carried out in which no catalase inhibitor was added to the catalase solution or de-inking paper before the treated filter was submerged therein. The time that was required for the filter paper to rise to the solution surface was recorded and used to determine H2O2 decomposition rate. A longer time for the filter paper to rise to the surface indicated a slower H2O2 decomposition rate.
Catalase de-activation performance of a glyoxalated polyacrylamide (G-PAM) and glutaraldehyde was tested with the filter paper float test using distilled water. As indicated, in a typical test, a square piece of filter was first saturated with 50% H2O2 solution. Various amounts of the two types of catalase inhibitors being studied in this example were mixed with the catalase solution prepared with distilled water for five minutes before the treated filter paper was submerged in the catalase solution. Once the treated filter paper was submerged in catalase solution, catalase started decomposing H2O2 molecules, releasing O2 gas. The faster the H2O2 decomposition rate, the faster the O2 gas being generated, and the shorter the time required for the filter paper to rise to the solution surface. On the other hand, the presence of catalase inhibition will slow down the H2O2 decomposition rate, resulting in longer periods of time for the filter paper to rise to the surface.
Table 1 presents the results of the float tests conducted with 20 μL commercial catalase TERMINOX® Ultra 50L diluted by 1000 mL distilled water to prepare the catalase solution. As indicated, glutaraldehyde and glyoxalated polyacrylamide were studied as the catalytic inhibitors. Glutaraldehyde was chosen as a control for this example. Large quantities of glutaraldehyde are commercially used as a catalase inhibitor. BUBOND® 387 was the source of the glyoxalated polyacrylamide.

[2] = system: commercial catalase TERMINOX® Ultra 50L; test: Filter paper float test of catalase de-activation using papermaking white water; conditions: 500 ppm inhibitor
Procedure: as §1
To test the effect of dissolved and colloidal substances on catalase inhibitors, float tests were also carried out with the white water obtained from a newsprint papermaking mill. […]

[3] = system: wild catalase in de-inking white water; test: Filter paper float test of catalase de-activation using de-inking white water
Procedure: as §1
As an initial observation made with respect to the controls that contained no catalase inhibitor, a significant difference was observed between the papermaking and de-inking sources of white water with respect to wild catalase content. […] The presence of wild catalase in the de-inking white water was confirmed by the float tests. It only took about 40 seconds for the peroxide-treated filter paper to rise to the surface of the de-inking white water that had not been treated with catalase inhibitor (e.g., see Control A, Table 4 below).
Float tests were also carried out with the de-inking white water obtained from a papermaking mill. Various amounts of the catalase inhibitors being studied for this example were mixed with the de-inking white water for five minutes before the treated filter paper was submerged in the de-inking white water. […]

Float time ([1]; 50 ppm inhibitor): 80 s | Float time ([1]; 100 ppm inhibitor): 72 s | Float time ([1]; 150 ppm inhibitor): 88 s | Float time ([1]; 200 ppm inhibitor): 103 s | Float time ([1]; 300 ppm inhibitor): 117 s | Float time ([1]; 500 ppm inhibitor): 128 s | filter paper float time ([1]; below 100 ppm inhibitor, distilled water catalase solution): around 75 seconds | Float time ([2]; 10 μL catalase/1000 mL papermaking white water, no-inhibitor float time 197 sec): 301 s | Float time ([2]; 20 μL catalase/1000 mL papermaking white water, no-inhibitor float time 67 sec): 130 s | Float time ([3]; Dosage 2000 ppm, de-inking white water, no-inhibitor Control A 39 sec): 68 s
SMILES: O=CCCCC=O [Glutaraldehyde]
Float time ([3]; Dosage 2000 ppm, de-inking white water pre-treated with 1000 ppm BUSAN® 1078 bactericide for 30 minutes, no-inhibitor Control B 35 sec): 40 s | Float time ([3]; Dosage 4000 ppm, de-inking white water pre-treated with 1000 ppm BUSAN® 1078 bactericide for 30 minutes, no-inhibitor Control B 35 sec): 37 s
